Read-outs that look alike come from different tables or passages of the source. One block for each compound: values may come before it.
Assays:
KYSE-150 = assay: Cell proliferation, KYSE-150; format: cell-based; settings: Homo sapiens, read-out: Cellular Proliferation IC50
Experimental: (§1) Cell lines used in these experiments were obtained from the following sources and were cultured according to conditions specified by the respective cell banks. […] The cell lines listed above were tested for mycoplasma and were negative. Cells were authenticated by STR method or vendor protocols. All 313 cell lines in the CRIPSR pooled screen were purchased from commercial vendors and were STR authenticated and mycoplasma negative. A broad panel of cancer cell lines was screened in the Eurofins Oncopanel. All cells in this panel were mycoplasma negative and STR verified.
Thus, 5 compounds representing 4 distinct pharmacophore series of SMYD2 inhibitors are now available for testing the dependence of cancer lines on SMYD2 activity. […] In stark contrast, however, no correlation is seen between the potency for BTF3 methylation inhibition and anti-proliferative activity among these compounds (Fig 3B).

SMYD2 [1] = biological target: T1, SMYD2 (Homo sapiens, UniProt Q9NRG4); assay: Intracellular BTF3 monomethylation (BTF3me1) western blot; format: cell-based; design: endogenous in cells; host or cells: 313 cancer cell lines; settings: read-out: Intracellular Methylation IC50
Experimental: Cells were lysed in 1X RIPA Buffer containing 10% SDS and Halt™ Protease Inhibitor Cocktail (Thermo Fisher Scientific) and incubated on ice for 30 minutes before sonication (Amplitude 20%/10sec) twice. Lysates were spun at […] at 4°C for 10min and normalized for protein concentration by BCA assay (Thermo Fisher Scientific). […] Blots were imaged using the Odyssey Imaging System (LICOR Biosciences). […] BTF3me1 is a custom generated polyclonal antibody, affinity purified from serum of rabbits injected with adjuvant conjugated peptide corresponding to methylated K1 of BTF3 (K(Me)-[…]).
SMYD2 catalyzes the methylation of lysine residues on several proteins, including BTF3 [40].

SMYD2 [2] = biological target: T1, SMYD2; assay: SMYD2 biochemical methylation assay (3H-SAM, H3,1–29 peptide, flashplate); design: Full length FLAG-SMYD2 and C-terminally Avi-tagged full length SMYD2 (SMYD2-Avi) were cloned into pFastbac vectors; FLAG (N); His tag with TEV cleavage site (N, cleaved yes); made in house; host or cells: Sf9 insect cells (baculovirus)
Experimental: Full length FLAG-SMYD2 and C-terminally Avi-tagged full length SMYD2 (SMYD2-Avi) were cloned into pFastbac vectors containing an N-terminal His tag with TEV cleavage site. Virus production was performed using standard protocols and the proteins were coexpressed in either Sf9 (SMYD2) or Hi Five (SMYD2-Avi) cells. After harvest by centrifugation, cell pellets for both proteins were resuspended, sonicated, and then centrifuged to remove cell debris. Protein was purified using nickel affinity chromatography before and after TEV cleavage in a similar fashion as SMYD3. […] SMYD2-Avi was biotinylated using His-tagged BirA enzyme after dialysis into a low salt buffer and the BirA was removed with a final nickel affinity column. […] SMYD3 assays were performed as previously described using N-terminally GST-tagged MAP3K2 protein substrate. […] Reactions were conducted at room temperature with enzyme and inhibitor incubated for 30 minutes before initiating the reaction with substrates. Dose-response curves were tested in duplicate in each experiment. […] Quenched reactions were transferred to a streptavidin-coated flashplate (Perkin Elmer) for capture of the biotinylated peptide. After 2 h incubation at room temperature, the flashplate was washed once with 0.1% Tween-20 and read on a Perkin Elmer Topcount NXT plate reader. Substrate apparent KM values were determined by measuring the initial velocities (v0) in duplicate while varying one substrate at fixed concentration of the second substrate. […] Percent inhibition by compound (% inh) was calculated from Eq 3 %inh=(1-([…] the signal in the presence of compound and max and min are the signals for the DMSO and background controls respectively. […] Mechanism of inhibition was determined by measuring the inhibitor IC50 values while varying the concentration of one substrate at a fixed concentration of the second substrate equal to its KM value. The inhibition constant Ki was calculated from fitting the IC50 versus varied substrate concentration data using the Cheng-Prusoff equations for mixed-type and noncompetitive inhibition below. α is the coefficient accounting for differences in inhibitor affinity between binding enzyme forms after versus before substrate binding.

[3] = tested on: cell lines found to be sensitive to LLY-507; settings: cited from earlier work
several cell lines = settings: cited from earlier work
SMYD3 [4] = biological target: T2, SMYD3 (Homo sapiens, UniProt Q9H7B4); settings: read-out: Kd for binding to SMYD3; cited from earlier work
T2 sequence (Q9H7B4 1-428): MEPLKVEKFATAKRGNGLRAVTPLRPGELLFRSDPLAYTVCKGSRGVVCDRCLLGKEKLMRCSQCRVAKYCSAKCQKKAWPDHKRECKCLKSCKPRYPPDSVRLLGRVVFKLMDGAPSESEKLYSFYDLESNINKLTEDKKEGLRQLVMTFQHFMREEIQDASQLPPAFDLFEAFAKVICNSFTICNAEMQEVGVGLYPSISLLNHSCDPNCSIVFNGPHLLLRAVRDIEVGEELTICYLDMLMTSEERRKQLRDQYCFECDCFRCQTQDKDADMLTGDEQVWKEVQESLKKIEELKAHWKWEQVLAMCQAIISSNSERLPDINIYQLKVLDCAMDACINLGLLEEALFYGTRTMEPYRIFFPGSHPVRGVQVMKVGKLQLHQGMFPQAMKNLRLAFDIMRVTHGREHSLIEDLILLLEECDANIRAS

SMYD3 [5] = biological target: T2, SMYD3; design: endogenous in cells; host or cells: 313 cancer cell lines; method as in Mitchell et al (2016); settings: read-out: Intracellular Methylation IC50; MAP3K2 methylation; ref Mitchell et al (2016); cited from earlier work
SMYD3 [6] = biological target: T2, SMYD3; design: Protein purification of both isoforms of full length SMYD3 was performed as previously reported; made in house; method as in Mitchell et al (2016); settings: read-out: Biochemical IC50, ref Mitchell et al (2016); cited from earlier work
SMYD3 [7] = biological target: T2, SMYD3; assay: SMYD3 biochemical methylation assay (3H-SAM, GST-MAP3K2/MEKK2 substrate); design: Protein purification of both isoforms of full length SMYD3 was performed as previously reported; made in house; settings: tested in duplicate; read-out: selectivity panel result, SMYD3 (off-target)
Experimental: SMYD3 assays were performed as previously described using N-terminally GST-tagged MAP3K2 protein substrate. […] Reactions were conducted at room temperature with enzyme and inhibitor incubated for 30 minutes before initiating the reaction with substrates. Dose-response curves were tested in duplicate in each experiment. […] Quenched reactions were transferred to a streptavidin-coated flashplate (Perkin Elmer) for capture of the biotinylated peptide. After 2 h incubation at room temperature, the flashplate was washed once with 0.1% Tween-20 and read on a Perkin Elmer Topcount NXT plate reader. Substrate apparent KM values were determined by measuring the initial velocities (v0) in duplicate while varying one substrate at fixed concentration of the second substrate.
Mechanism of inhibition was determined by measuring the inhibitor IC50 values while varying the concentration of one substrate at a fixed concentration of the second substrate equal to its KM value.

[8] = tested on: panel of 240 cancer cell lines; assay: Proliferation in a broad panel of 240 cancer cell lines, 2D culture (Eurofins Panlabs Oncopanel); format: cell-based; settings: for IC50: read-out: anti-proliferative IC50 across the panel of 240 cancer cell lines, 2D culture
Experimental: as §1

several enzymes = tested on: several enzymes; design: method as in http://www.chemicalprobes.org; settings: ref http://www.chemicalprobes.org; cited from earlier work
SMYD2 [9] = biological target: T1, SMYD2; settings: read-out: apparent SAM KM (reported); p53 peptide substrate, pH 9.0; 2 (supplemental references); cited from earlier work
[10] = SMYD2, 20 nM SAM, 60 nM H3,1–29 peptide, read-out: Biochemical IC50

T1 sequence (Q9NRG4 whole entry): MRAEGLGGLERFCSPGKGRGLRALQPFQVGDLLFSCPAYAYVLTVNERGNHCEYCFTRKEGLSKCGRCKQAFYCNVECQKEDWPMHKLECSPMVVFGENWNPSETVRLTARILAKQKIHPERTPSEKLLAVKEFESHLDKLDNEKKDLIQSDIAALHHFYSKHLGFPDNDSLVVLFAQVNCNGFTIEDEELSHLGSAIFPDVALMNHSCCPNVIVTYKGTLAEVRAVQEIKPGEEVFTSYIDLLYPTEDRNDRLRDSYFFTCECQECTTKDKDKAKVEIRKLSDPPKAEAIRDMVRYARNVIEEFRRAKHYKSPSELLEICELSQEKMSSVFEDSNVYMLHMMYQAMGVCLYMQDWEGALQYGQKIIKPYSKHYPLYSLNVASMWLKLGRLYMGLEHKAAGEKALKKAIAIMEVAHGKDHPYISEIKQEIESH

IC50 (SMYD2 [1]): 13900 nM
IC50 (SMYD2 [2]; [10]): 51 nM
Compound: O=C1COc2c(CCNCCN(C(=O)CCNCCc3ccc(Cl)c(Cl)c3)C3CCCCC3)ccc(O)c2N1 [AZ505, reference compound]
IC50 (KYSE-150): 12800 nM

Compound: CCN(C(=O)CO)[C@H]1CN(/C(=N\C#N)Nc2cccc(OC(F)F)c2)N=C1c1ccc(Cl)c(Cl)c1 [BAY-598]
impact on cell proliferation or induction of apoptosis ([3]; cell lines found to be sensitive to LLY-507): little impact
IC50 ([3]; ref Eggert et al (2016), read-out: Cellular Proliferation IC50): > 20000 nM

Compound: NC(=O)C1CCN(CC(=O)Nc2ccc(Br)cc2)CC1 [BCI-121]
inhibition of proliferation of several cell lines (several cell lines; at 100 µM): 20–30%
IC50 (several cell lines; ref Peserico et al (2015), read-out: Cellular Proliferation IC50): > 100000 nM
Kd (SMYD3 [4]): 11800 nM

Compound: O=C1Cc2cc(C(=O)NC3CC4CCC(C3)N4S(=O)(=O)CC3CCN(CCCC(F)(F)F)CC3)c(Cl)cc2N1 (stereo not shown) [EPZ031686]
IC50 (SMYD3 [5]): 36 nM
IC50 (SMYD3 [6]): 3 nM

IC50 (SMYD2 [1]): 31 nM
IC50 (SMYD3 [7]): > 10000 nM
mechanism of inhibition with respect to peptide substrate (SMYD2 [2]; 1 nM enzyme, 20 nM SAM, varied H3,1–29): noncompetitive
IC50 (SMYD2 [2]; IC50 at 20 nM SAM, 1 nM SMYD2, 60 nM H3,1-29, 20 nM SAM): 21 ± 2 nM
IC50 (SMYD2 [2]; IC50 at 200 nM SAM, 1 nM SMYD2, 60 nM H3,1-29, 200 nM SAM): 25 ± 5 nM
IC50 (SMYD2 [2]; [10]): 16 nM
Ki (SMYD2 [2]; varied H3,1–29 peptide, Eq 6, read-out: Ki (noncompetitive versus peptide)): 21.5 ± 1.5 nM
IC50 [8]: > 10000 nM
Compound: O=C(NC1CN(Cc2cnn(Cc3ccccc3)c2)C1)c1cn(C2CC2)nn1 [EPZ032597]
IC50 (KYSE-150): > 40000 nM
growth inhibition on repeat testing of hematologic cancer cell lines ([8]; cell lines with lower IC50 in the initial screen): < 50%

IC50 [8]: 1000 to 5000 nM
Compound: Cc1cn(CCN2CCN(c3ccccc3-c3cc(C#N)cc(C(=O)NCCCN4CCCC4)c3)CC2)c2ccccc12 [LLY-507, reference compound]
IC50 (KYSE-150): 1800 nM
inhibition of several enzymes (off-target potency) (several enzymes): < 1000 nM

Compound: C[S+](CC[C@H](N)C(=O)[O-])C[C@H]1O[C@@H](n2cnc3c(N)ncnc32)[C@H](O)[C@@H]1O (stereo partly drawn) [SAM, S-(5’adenosyl)-L-methionine]
Km (SMYD2 [9]): 0.03 to 0.06 µM
Km (SMYD2 [2]; 1 nM SMYD2, 60 nM H3,1–29, Eq 2, upper limit for the true KM, read-out: apparent KM for SAM): 0.00034 ± 7e-05 µM

Reference: article PMC5983452 (PLoS ONE, 2018)
